# Experimental data from paper PMC9421654, “Discovery of Substituted Di(pyridin-2-yl)-1,2,4-thiadiazol-5-amines as Novel Macrofilaricidal Compounds for the Treatment of Human Filarial Infections” (Journal of Medicinal Chemistry, 2022).
# Several values for one entry are separate records, joined by “and”; a condition that tells them apart may be missing. Equal entries are not always repeated. Where two headings read alike, the source gives them in different places. Marks after values point to notes of the source that are not given here.
# Key:
# [1] = test system: O. gutturosa adult male worms; assay: O. gutturosa adult worm ex vivo assay, motility; type: cell-based, Onchocerca gutturosa; settings: Onchocerca gutturosa
# Outline: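 Adult male O. gutturosa from naturally infected cattle were cultured in supplemented MEM at 37 °C, 5% CO2, with four worms per concentration in serial 1-in-4 dilutions. Motility (0–10 scale) was scored every 24 h to 120 h. EC50 (geomean, n=2) for motility reduction came from 4PL fits, and viability was checked by MTT at 120 h.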
# [2] = test system: O. gutturosa adult male worms; assay: O. gutturosa adult worm ex vivo assay, MTT/formazan viability; type: cell-based, Onchocerca gutturosa; settings: Onchocerca gutturosa, supplement; SD in brackets in the PDF table; read-out: O. gutturosa EC50 (uM) MTT viability inhibition
# Outline: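 Adult male worms from naturally infected Gambian cattle were kept individually in MEM with 10% newborn calf serum at 37 °C, 5% CO2; four worms per concentration. Motility was scored 0-10 every 24 h to 120 h as a percentage of maximum, with ≥50% reduction versus untreated counted active. Afterwards, MTT (0.5 mg/mL, 30 min) formazan was read at 490 nm.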
# [3] = Kinetic solubility measurement; type: physicochemical; settings: for solubility kinetic at 24 h: 10 mM DMSO stock solutions
# Outline: (§1)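 Human and rat liver microsomes (0.3 mg/mL) with 1 mM NADPH and 3µM substrate, 30 minutes at 37 °C in pH 7.4 phosphate/MgCl2, triplicate; LC-MS/MS percentage remaining. LogD: octanol/aqueous buffer (pH 7.4, 2.2, 6.8, 5), 24 h shaking at room temperature. Kinetic solubility: 200 µM, 2% DMSO, 24 h, filtered.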
# [4] = LogD measurement (octanol-water); type: physicochemical
# Outline: as §1
# [5] = Liver microsome metabolic stability assay, human; type: in vitro ADME; settings: 3 μM, 30 min
# Experimental: (§2) Liver Microsome Metabolic Stability Assay: Incubations were performed at 37 °C in a Dubnoff Shaking water bath using 2 mL 96-well incubation plates. Liver microsome protein concentration was 0.3 mg/mL the final concentration of NADPH was 1 mM. Substrate concentrations are 3µM, incubation time is 30 minutes, and all tests are done in triplicate. The incubation was conducted in 200 mM Phosphate buffer containing 2 mM magnesium chloride, pH=7.4 and the total incubation volume was 0.5 mL. Samples were analyzed via LC-MS/MS and reported as percentage remaining after 30minute incubation, which can then be converted to half-life and intrinsic clearance. […]
# [6] = Liver microsome metabolic stability assay, mouse; type: in vitro ADME; settings: 3 μM, 30 min; for Rat Microsomes: Tables 2 and 3, footnote: tested in the mouse liver microsome assay
# Experimental: as §2
# [7] = Liver S9 metabolic stability assay, rat; type: in vitro ADME; settings: 3 μM, 60 min
# Outline: (§3)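 Rat and human liver S9 (0.75 and 1.2 mg/ml) with 1 mM NADPH, 0.5 mM UDPGA, 2.5 mM GSH, 0.05 mg/ml PAPS, 3µM substrate, 60 min at 37 °C in Tris/MgCl2 pH 7.4. Mouse microsomes 0.3 mg/mL, 1 mM NADPH, 3µM, 30 min, phosphate pH 7.4. LC-MS/MS, % remaining, triplicate.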
# [8] = Liver S9 metabolic stability assay, human; type: in vitro ADME; settings: 3 μM, 60 min
# Outline: as §3
# O. volvulus L5 larvae [9] = assay: O. volvulus L5 ex vivo assay, motility; type: cell-based; settings: Onchocerca volvulus, 504 h, read-out: O. volvulus L5 % inhibition of motility
# Experimental: O. volvulus larvae (L4) were prepared using cryopreserved O. volvulus L3 cultured in a medium containing 1:1 NCTC-109 and IMDM (Iscove’s modified Dulbecco’s medium) supplemented with Glutamax (1×) and 2× Antibiotic-Antimycotic (Life Technologies). This culturing medium was then added in transwell 24-well plates containing human umbilical vein endothelial cell (HUVEC) monolayers, containing the L4 larvae. A week prior to conducting an assay, the cultured O. volvulus larvae (L5) were transferred into a Petri dish containing fresh medium. Aliquots of 8–10 worms were retrieved from the Petri dish and placed inside new transwells over newly seeded HUVEC monolayers in the medium described above. After the transfer of O. volvulus L5 to the plates, the test compounds were dissolved in DMSO, added to each well, and incubated at 37 °C in a 5% CO2. The media containing freshly prepared compounds were partially replaced every 2–3 days for 14 days. After 14 days, the media were completely replaced. The untreated control contains the media described above with a final concentration of 0.05% DMSO. The motility was measured every 2–3 days with the following scale: 100% motility, constant coiling movement; 75% motility, slower coiling; 50% motility, slow and intermittent movement; 25% motility, very slow movement or twitching; and 0% motility, no movement. The motility was measured visually by two operators. On day 28, the viability of O. volvulus L5 was measured by MTT. Following washout and incubation during 1 h in PBS under 5% CO2, worms were observed under an inverted microscope. Worms were considered dead if no staining or less than 50% within the worm was observed. Otherwise, if worms stained blue or more than 50% stained, then they are considered alive. All test treatments were performed in duplicates. Significance was determined using a t test.
# O. volvulus L5 larvae [10] = assay: O. volvulus L5 ex vivo assay, MTT viability; type: cell-based, Onchocerca volvulus; settings: Day 21, 1 uM
# Experimental: This culturing medium was then added in transwell 24-well plates containing human umbilical vein endothelial cell (HUVEC) monolayers, containing the L4 larvae. A week prior to conducting an assay, the cultured O. volvulus larvae (L5) were transferred into a Petri dish containing fresh medium. […] After the transfer of O. volvulus L5 to the plates, the test compounds were dissolved in DMSO, added to each well, and incubated at 37 °C in a 5% CO2. The media containing freshly prepared compounds were partially replaced every 2–3 days for 14 days. After 14 days, the media were completely replaced. The untreated control contains the media described above with a final concentration of 0.05% DMSO. […] The motility was measured visually by two operators. […] Following washout and incubation during 1 h in PBS under 5% CO2, worms were observed under an inverted microscope. Worms were considered dead if no staining or less than 50% within the worm was observed. Otherwise, if worms stained blue or more than 50% stained, then they are considered alive. All test treatments were performed in duplicates. Significance was determined using a t test.
# P-gp (MDR1) = molecular target: T1, P-gp (MDR1) (Homo sapiens, UniProt P08183); assay: MDCK/MDR1 permeability and efflux; type: in vitro ADME; settings: dog
# T1 construct: expressed in transfected cells; host or cells: MDCK (Madin Darby canine kidney) cells
# Description: Our approach was to target compounds with efflux ratio (ER) >2.5 in the MDCK cell line transfected with MDR1 (multidrug resistance-1 transfected Madin Darby canine kidney cell line). […] Our goal was to impart structural elements designed to impart Pgp recognition.
# [11] = molecular target: T2, hERG potassium channels (KCNH2, expressed in HEK293 cells) (Homo sapiens, UniProt Q12809); assay: hERG inhibition; type: cell-based; settings: supplement
# T2 construct: expressed in transfected cells
# THLE-2 cells = assay: THLE-2 cytotoxicity assay (ATP); settings: Homo sapiens, THLE-2, read-out: THLE IC50
# Experimental: In vitro cytotoxicity of select compounds was tested in a “normal” proliferating transformed human liver epithelial (THLE-2) cell line.[35] Compounds were incubated in THLE-2 cells for 24 and 72 h, and adenosine triphosphate (ATP) levels were used as an indicator of cell viability.
# THLE-2 Cytotoxicity Assay: THLE-2 cells (ATCC, catalog #CRL-2706) were plated in LHC-8 Media (Invitrogen, catalog #12679015) supplemented with fetal bovine serum (GE, catalog #SH30088.03), 70 ng/mL phosphoethanolamine (Sigma, catalog #P0503), 5 ng/mL EGF (Sigma, catalog #E9644), 1X penicillin/streptomycin (Gibco, catalog #15140148), and 1X glutamine (Invitrogen, catalog #25030024) in 384-well clear-bottom, black walled plates at a density of 3750 cells/well (15μL/well). After plating, cells were incubated overnight at 37°C in an incubator with 5% CO2 and 90% humidity. Compounds were first serially diluted in dimethyl sulfoxide then diluted in LHC-8 media growth media to 2X concentration. Cells were dosed with 15μL of each dose for final concentrations between 0.01 – 300 μM. Cells were incubated with compounds for 24 or 72 hours. Cytotoxicity was determined with Cell Titer Glo Luminescent ATP Assay (Promega, catalog #G7573) according to the manufacturer’s instructions. Tamoxifen (Sigma, catalog #BC9353476) was used as a positive control. levels at each dose were normalized to that of cells dosed with dimethyl sulfoxide vehicle alone and IC50 values were calculated from non-linear regression fits of dose-response curves plotted
# [12] = Liver microsome metabolic stability assay, rat; type: in vitro ADME; settings: Table 1; 3 μM, 30 min
# Experimental: as §2
# [13] = read-out: O. gutturosa EC50 μM (SD), ex vivo adult worm motility reduction, SD in brackets
# [14] = read-out: O. gutturosa EC50 (uM) motility inhibition, supplement, SD in brackets in the PDF table
# [15] = supplement, read-out: measured logD
# [16] = read-out: O. gutturosa EC50, adult worm motility, bound stated
# T1 sequence (P08183 whole entry): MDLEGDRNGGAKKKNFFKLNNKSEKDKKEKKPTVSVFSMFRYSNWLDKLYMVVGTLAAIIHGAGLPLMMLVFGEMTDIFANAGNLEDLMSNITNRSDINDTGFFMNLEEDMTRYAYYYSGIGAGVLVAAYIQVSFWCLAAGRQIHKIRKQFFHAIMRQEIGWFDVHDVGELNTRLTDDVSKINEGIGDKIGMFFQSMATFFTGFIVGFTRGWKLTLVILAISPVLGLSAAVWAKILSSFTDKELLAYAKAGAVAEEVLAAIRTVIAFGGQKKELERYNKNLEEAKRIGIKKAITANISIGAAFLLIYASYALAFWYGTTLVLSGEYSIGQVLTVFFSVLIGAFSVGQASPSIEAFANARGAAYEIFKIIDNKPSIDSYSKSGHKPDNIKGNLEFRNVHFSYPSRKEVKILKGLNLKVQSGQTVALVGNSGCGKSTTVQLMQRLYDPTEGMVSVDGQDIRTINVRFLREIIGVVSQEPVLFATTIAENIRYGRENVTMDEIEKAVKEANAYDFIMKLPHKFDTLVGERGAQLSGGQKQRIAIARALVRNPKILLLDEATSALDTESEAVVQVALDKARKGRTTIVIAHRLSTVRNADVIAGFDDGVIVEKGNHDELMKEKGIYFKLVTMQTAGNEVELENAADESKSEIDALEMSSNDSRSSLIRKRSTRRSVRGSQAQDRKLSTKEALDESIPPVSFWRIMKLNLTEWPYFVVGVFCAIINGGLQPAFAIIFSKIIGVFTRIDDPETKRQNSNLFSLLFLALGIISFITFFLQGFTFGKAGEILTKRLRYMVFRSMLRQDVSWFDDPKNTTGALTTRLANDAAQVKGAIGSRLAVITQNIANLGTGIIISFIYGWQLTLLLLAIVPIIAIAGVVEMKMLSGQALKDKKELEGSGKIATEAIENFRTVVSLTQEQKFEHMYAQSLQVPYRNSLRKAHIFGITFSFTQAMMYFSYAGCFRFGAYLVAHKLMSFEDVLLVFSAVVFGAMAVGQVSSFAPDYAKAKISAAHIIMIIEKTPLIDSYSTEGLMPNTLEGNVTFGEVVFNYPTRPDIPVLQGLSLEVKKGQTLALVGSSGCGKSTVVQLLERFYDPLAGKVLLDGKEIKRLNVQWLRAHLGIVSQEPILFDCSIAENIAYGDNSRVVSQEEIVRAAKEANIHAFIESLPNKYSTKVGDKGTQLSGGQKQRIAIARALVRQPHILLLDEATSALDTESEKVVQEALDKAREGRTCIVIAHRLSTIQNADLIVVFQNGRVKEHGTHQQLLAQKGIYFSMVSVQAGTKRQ
# T2 sequence (Q12809 whole entry): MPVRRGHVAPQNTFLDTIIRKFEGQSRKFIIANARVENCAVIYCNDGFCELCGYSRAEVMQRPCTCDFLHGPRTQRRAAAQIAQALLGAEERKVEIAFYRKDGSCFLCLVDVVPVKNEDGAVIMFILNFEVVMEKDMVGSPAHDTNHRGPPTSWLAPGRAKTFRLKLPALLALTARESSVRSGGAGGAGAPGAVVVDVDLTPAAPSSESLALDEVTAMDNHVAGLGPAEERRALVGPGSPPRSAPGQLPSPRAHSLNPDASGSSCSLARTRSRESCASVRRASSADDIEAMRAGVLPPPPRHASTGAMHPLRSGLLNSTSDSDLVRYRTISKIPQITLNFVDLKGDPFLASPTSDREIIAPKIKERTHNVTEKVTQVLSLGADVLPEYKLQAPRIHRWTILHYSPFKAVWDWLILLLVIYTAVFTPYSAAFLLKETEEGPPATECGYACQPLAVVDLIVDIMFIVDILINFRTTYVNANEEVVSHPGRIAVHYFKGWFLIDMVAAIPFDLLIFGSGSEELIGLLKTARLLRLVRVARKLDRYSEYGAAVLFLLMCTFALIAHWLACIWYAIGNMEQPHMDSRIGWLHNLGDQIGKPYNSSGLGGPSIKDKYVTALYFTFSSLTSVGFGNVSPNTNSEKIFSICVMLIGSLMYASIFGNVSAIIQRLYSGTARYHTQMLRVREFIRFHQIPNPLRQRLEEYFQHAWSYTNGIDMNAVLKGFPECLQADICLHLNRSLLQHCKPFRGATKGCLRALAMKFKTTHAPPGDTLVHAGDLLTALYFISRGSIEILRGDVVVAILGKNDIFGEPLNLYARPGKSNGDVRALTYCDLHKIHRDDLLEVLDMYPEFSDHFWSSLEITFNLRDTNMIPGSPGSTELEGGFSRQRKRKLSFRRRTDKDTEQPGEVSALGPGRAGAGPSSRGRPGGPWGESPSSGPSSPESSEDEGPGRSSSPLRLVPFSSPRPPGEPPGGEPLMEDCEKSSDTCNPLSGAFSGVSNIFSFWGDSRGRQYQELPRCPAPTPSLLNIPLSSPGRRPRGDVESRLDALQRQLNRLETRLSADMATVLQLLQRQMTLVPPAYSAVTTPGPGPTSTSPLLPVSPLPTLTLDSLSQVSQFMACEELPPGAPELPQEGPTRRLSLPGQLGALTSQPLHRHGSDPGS
Rat Microsomes [12] [% remaining],Compound,"EC50 [1, 13] [µM]","EC50 [1, 14] [µM]",EC50 [2] [µM],solubility kinetic at 24 h [3],"logD at 24 h ([4]; pH 7.4, read-out: logD)","logD at 24 h [4, 15]",Human Microsomes [5],Rat Microsomes [6],"EC50 [1, 16] [µM]",Rat S9 metabolic stability [7] [% remaining],Human S9 metabolic stability [8] [% remaining],inhibition at 1 µM (O. volvulus L5 larvae [9]) [%],O. volvulus L5 % inhibition of viability (O. volvulus L5 larvae [10]) [%],Papp A→B (P-gp (MDR1)) [×10⁻⁶ cm/s],IC50 [11] [nM],IC50 (THLE-2 cells) [nM],"Rat Microsomes, (m) ([6]; Table 1, tested in the mouse not rat)",fold less soluble than 47 ([3]; 24 h) [fold]
,Cc1cccnc1Nc1nc(-c2cc(C(=O)N(C)C)c(OC(C)C)cn2)ns1 [Compound 17],0.63,0.626,0.5,154 µM,2.3,2.3,91 % remaining,90 % remaining,,,,,,,,,,
,"CC(C)c1cccnc1Nc1nc(-c2ccc(OC3CC3)cn2)ns1 [Compound 23, 3-(5-Cyclopropoxypyridin-2-yl)-N-(3-isopropylpyridin-2-yl)-1,2,4-thiadiazol-5-amine]",0.04,0.038,0.012,,2.5,2.5,,,< 0.1,78,39,100,100,,,,,
,"CC(C)Oc1cnc(-c2nsc(Nc3ncccc3C(C)C)n2)cc1C(F)(F)F [Compound 24, 3-(5-Isopropoxy-4-(trifluoromethyl)pyridin-2-yl)-N-(3-isopropylpyridin-2-yl)-1,2,4-thiadiazol-5-amine]",0.05,0.051,0.75,1.05 µM,2.9,2.9,97 % remaining,96 % remaining,< 0.1,,,,,,,,,
,"CC(C)Oc1cnc(-c2nsc(Nc3ncccc3N(C)C(=O)C3CC3)n2)cc1C(F)(F)F [Compound 49, N-(2-((3-(5-Isopropoxy-4-(trifluoromethyl)pyridin-2-yl)-1,2,4-thiadiazol-5-yl)amino)pyridine-3-yl)-N-methylcyclopropanecarboxamide]",1.11,,3.7,2.67 µM,3.63,3.63,,,,,,,,8.8,> 30000,18300,,
89,"Cc1cccnc1Nc1nsc(-c2ccc(OC3CCOCC3)cn2)n1 [Compound 5, N-(3-Methylpyridin-2-yl)-5-(5-((tetrahydro-2h-pyran-4-yl)oxy)pyridin-2-yl)-1,2,4-thiadiazol-3-amine]",,,,182 µM,,2.15,77 % remaining,,,,,,,,,,,
,"Cc1cccnc1Nc1nc(-c2ncc(OC(C)C)cn2)ns1 [Compound 40, 3-(5-Isopropoxypyrimidin-2-yl)-N-(3-methylpyridin-2-yl)-1,2,4-thiadiazol-5-amine]",2.35,,2.9,12.3 µM,2.9,2.9,96^c % remaining,90^c % remaining,,,,,,,,,,
,"Cc1cccnc1Nc1n[nH]c(-c2ccc(OC3CCOCC3)cn2)n1 [Compound 8, 3-Methyl-N-{5-[5-(oxan-4-yloxy)pyridin-2-yl]-4H-1,2,4-triazol-3-yl}pyridin-2-amine]",0.01,0.009,0.004,202 µM,,2,92 % remaining,,,,,,,,,,70 (m)^e % remaining,
,CC(C)Oc1cnc(-c2nsc(Nc3ncccc3N(C)C)n2)cc1C(F)(F)F [Compound 34],0.04,0.036,0.53,,2.9,2.9,98 % remaining,93 % remaining,,,,,,,,,,10
,"CC(C)Oc1ccc(-c2nsc(Nc3ncccc3C(=O)N(C)C)n2)nc1 [Compound 61, 2-((3-(5-Isopropoxypyridin-2-yl)-1,2,4-thiadiazol-5-yl)amino)-N,N-dimethylnicotinamide]",0.36,0.357,2.1,101 µM and 100.70 µM,2.1,2.1,,,,,,,,4.9,> 30000,32500,,
